# According to patent US10947289B2, “Glyco-modified atrial natriuretic peptide” (priority 2013, dated 2021):
# Experiments:
# human GC-A = target: T1, human GC-A (Homo sapiens, UniProt P16066); test: cGMP elevating activity in CHO/human GC-A cells (Test Example 1); format: cell-based
# T1 construct: expressed in transfected cells; host or cells: CHO cells
# T1 sequence (P16066 33-1061): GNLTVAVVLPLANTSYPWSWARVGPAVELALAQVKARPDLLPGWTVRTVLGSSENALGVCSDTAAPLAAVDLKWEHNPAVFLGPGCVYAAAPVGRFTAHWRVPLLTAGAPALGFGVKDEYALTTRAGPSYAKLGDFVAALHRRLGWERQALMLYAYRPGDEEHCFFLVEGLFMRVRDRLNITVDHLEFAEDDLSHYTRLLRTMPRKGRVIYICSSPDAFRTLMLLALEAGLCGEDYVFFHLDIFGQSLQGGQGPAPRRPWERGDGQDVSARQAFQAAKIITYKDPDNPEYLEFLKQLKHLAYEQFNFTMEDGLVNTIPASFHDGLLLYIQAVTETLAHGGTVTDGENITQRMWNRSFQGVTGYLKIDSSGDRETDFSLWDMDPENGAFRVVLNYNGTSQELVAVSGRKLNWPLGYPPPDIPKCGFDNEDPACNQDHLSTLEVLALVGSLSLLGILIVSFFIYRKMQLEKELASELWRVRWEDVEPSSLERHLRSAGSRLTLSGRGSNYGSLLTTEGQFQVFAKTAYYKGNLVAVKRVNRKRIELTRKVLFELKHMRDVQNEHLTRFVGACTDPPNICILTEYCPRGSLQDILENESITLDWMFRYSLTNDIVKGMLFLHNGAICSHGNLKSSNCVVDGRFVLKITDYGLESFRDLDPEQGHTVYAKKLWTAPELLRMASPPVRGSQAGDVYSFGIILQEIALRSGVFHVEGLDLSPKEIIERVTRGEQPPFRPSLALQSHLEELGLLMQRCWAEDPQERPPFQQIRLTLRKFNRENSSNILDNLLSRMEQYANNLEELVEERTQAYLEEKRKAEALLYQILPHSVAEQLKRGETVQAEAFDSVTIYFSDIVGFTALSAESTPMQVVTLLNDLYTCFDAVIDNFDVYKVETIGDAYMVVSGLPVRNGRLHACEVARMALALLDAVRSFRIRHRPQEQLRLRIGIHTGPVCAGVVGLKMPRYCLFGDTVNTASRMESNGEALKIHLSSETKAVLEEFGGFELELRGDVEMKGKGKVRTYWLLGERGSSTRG
# Method in brief: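 CHO cells stably expressing human GC-A, pre-incubated 10 min at room temperature in 1.6 mM IBMX/KRB, then exposed to test peptide 15 min in CO2 incubator. Lysate cGMP measured by HTRF. Activity (T/C) scaled so solvent-only = 0 and 1 nM ANP = 1.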
# [1] = Detection of test substance in rat plasma by LC-MS/MS (Test Example 3); format: in vivo; settings: rat plasma, 100 nmol/kg i.v., LC-MS/MS; time at which the test substance was finally detected
# Method in brief: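 Jugular blood drawn before and 15–240 min after dosing; plasma spiked with stable-isotope hANP internal standard and AcOH/water/DMSO solvent, then passed through a 50K filter with the 3K-retained fraction analysed by LC-MS/MS. Value is the last time point at which test substance was detected.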
Structure (SMILES),EC50 (human GC-A),Maximum time of detection after administration [1]
"CC[C@H](C)[C@@H]1NC(=O)[C@H](CCCNC(=N)N)NC(=O)[C@H](CC(=O)O)NC(=O)[C@H](CCSC)NC(=O)[C@H](CCCNC(=N)N)NC(=O)CNC(=O)CNC(=O)[C@H](Cc2ccccc2)NC(=O)[C@@H](NC(=O)[C@H](CO)NC(=O)[C@H](CO)NC(=O)[C@H](CCCNC(=N)N)NC(=O)[C@H](CCCNC(=N)N)NC(=O)[C@H](CC(C)C)NC(=O)[C@H](CO)NC(=O)CNC(=O)[C@H](CSC2CC(=O)N(CCC(=O)NCCO[C@@H]3O[C@H](CO)[C@@H](O[C@@H]4O[C@H](CO)[C@@H](O[C@@H]5O[C@H](CO[C@H]6O[C@H](CO)[C@@H](O)[C@H](O)[C@@H]6O[C@@H]6O[C@H](CO)[C@@H](O[C@@H]7O[C@H](CO[C@]8(C(=O)O)C[C@H](O)[C@@H](NC(C)=O)[C@H]([C@H](O)[C@H](O)CO)O8)[C@H](O)[C@H](O)[C@H]7O)[C@H](O)[C@H]6NC(C)=O)[C@@H](O)[C@H](O[C@H]6O[C@H](CO)[C@@H](O)[C@H](O)[C@@H]6O[C@@H]6O[C@H](CO)[C@@H](O[C@@H]7O[C@H](CO[C@]8(C(=O)O)C[C@H](O)[C@@H](NC(C)=O)[C@H]([C@H](O)[C@H](O)CO)O8)[C@H](O)[C@H](O)[C@H]7O)[C@H](O)[C@H]6NC(C)=O)[C@@H]5O)[C@H](O)[C@H]4NC(C)=O)[C@H](O)[C@H]3NC(C)=O)C2=O)NC(=O)CNC(=O)[C@H](CSC2CC(=O)N(CCC(=O)NCCO[C@@H]3O[C@H](CO)[C@@H](O[C@@H]4O[C@H](CO)[C@@H](O[C@@H]5O[C@H](CO[C@H]6O[C@H](CO)[C@@H](O)[C@H](O)[C@@H]6O[C@@H]6O[C@H](CO)[C@@H](O[C@@H]7O[C@H](CO[C@]8(C(=O)O)C[C@H](O)[C@@H](NC(C)=O)[C@H]([C@H](O)[C@H](O)CO)O8)[C@H](O)[C@H](O)[C@H]7O)[C@H](O)[C@H]6NC(C)=O)[C@@H](O)[C@H](O[C@H]6O[C@H](CO)[C@@H](O)[C@H](O)[C@@H]6O[C@@H]6O[C@H](CO)[C@@H](O[C@@H]7O[C@H](CO[C@]8(C(=O)O)C[C@H](O)[C@@H](NC(C)=O)[C@H]([C@H](O)[C@H](O)CO)O8)[C@H](O)[C@H](O)[C@H]7O)[C@H](O)[C@H]6NC(C)=O)[C@@H]5O)[C@H](O)[C@H]4NC(C)=O)[C@H](O)[C@H]3NC(C)=O)C2=O)NC(=O)CNC(=O)[C@H](CSC2CC(=O)N(CCC(=O)NCCO[C@@H]3O[C@H](CO)[C@@H](O[C@@H]4O[C@H](CO)[C@@H](O[C@@H]5O[C@H](CO[C@H]6O[C@H](CO)[C@@H](O)[C@H](O)[C@@H]6O[C@@H]6O[C@H](CO)[C@@H](O[C@@H]7O[C@H](CO[C@]8(C(=O)O)C[C@H](O)[C@@H](NC(C)=O)[C@H]([C@H](O)[C@H](O)CO)O8)[C@H](O)[C@H](O)[C@H]7O)[C@H](O)[C@H]6NC(C)=O)[C@@H](O)[C@H](O[C@H]6O[C@H](CO)[C@@H](O)[C@H](O)[C@@H]6O[C@@H]6O[C@H](CO)[C@@H](O[C@@H]7O[C@H](CO[C@]8(C(=O)O)C[C@H](O)[C@@H](NC(C)=O)[C@H]([C@H](O)[C@H](O)CO)O8)[C@H](O)[C@H](O)[C@H]7O)[C@H](O)[C@H]6NC(C)=O)[C@@H]5O)[C@H](O)[C@H]4NC(C)=O)[C@H](O)[C@H]3NC(C)=O)C2=O)NC(C)=O)CSSC[C@@H](C(=O)N[C@@H](CC(N)=O)C(=O)N[C@@H](CO)C(=O)N[C@@H](Cc2ccccc2)C(=O)N[C@@H](CCCNC(=N)N)C(=O)N[C@@H](Cc2ccc(O)cc2)C(=O)O)NC(=O)CNC(=O)[C@H](CC(C)C)NC(=O)CNC(=O)[C@H](CO)NC(=O)[C@H](CCC(N)=O)NC(=O)[C@H](C)NC(=O)CNC1=O (stereo partly drawn) [Compound 2-15, [(SG-)Cys-Gly]3-hANP(1-28)]",3.1 nM,1.5 h
"CC[C@H](C)[C@@H]1NC(=O)[C@H](CCCNC(=N)N)NC(=O)[C@H](CC(=O)O)NC(=O)[C@H](CCSC)NC(=O)[C@H](CCCNC(=N)N)NC(=O)CNC(=O)CNC(=O)[C@H](Cc2ccccc2)NC(=O)[C@@H](NC(=O)[C@H](CO)NC(=O)[C@H](CO)NC(=O)[C@H](CCCNC(=N)N)NC(=O)[C@H](CCCNC(=N)N)NC(=O)[C@H](CC(C)C)NC(=O)[C@H](CO)NC(=O)[C@H](CC(=O)N[C@@H]2O[C@H](CO)[C@@H](O[C@@H]3O[C@H](CO)[C@@H](O[C@@H]4O[C@H](CO[C@H]5O[C@H](CO)[C@@H](O)[C@H](O)[C@@H]5O[C@@H]5O[C@H](CO)[C@@H](O[C@@H]6O[C@H](CO[C@]7(C(=O)O)C[C@H](O)[C@@H](NC(C)=O)[C@H]([C@H](O)[C@H](O)CO)O7)[C@H](O)[C@H](O)[C@H]6O)[C@H](O)[C@H]5NC(C)=O)[C@@H](O)[C@H](O[C@H]5O[C@H](CO)[C@@H](O)[C@H](O)[C@@H]5O[C@@H]5O[C@H](CO)[C@@H](O[C@@H]6O[C@H](CO[C@]7(C(=O)O)C[C@H](O)[C@@H](NC(C)=O)[C@H]([C@H](O)[C@H](O)CO)O7)[C@H](O)[C@H](O)[C@H]6O)[C@H](O)[C@H]5NC(C)=O)[C@@H]4O)[C@H](O)[C@H]3NC(C)=O)[C@H](O)[C@H]2NC(C)=O)NC(=O)CCOCCOCCOCCOCCNC(=O)CO[C@@H]2O[C@H](CO)[C@@H](O[C@@H]3O[C@H](CO)[C@@H](O[C@@H]4O[C@H](CO[C@H]5O[C@H](CO)[C@@H](O)[C@H](O)[C@@H]5O[C@@H]5O[C@H](CO)[C@@H](O[C@@H]6O[C@H](CO[C@]7(C(=O)O)C[C@H](O)[C@@H](NC(C)=O)[C@H]([C@H](O)[C@H](O)CO)O7)[C@H](O)[C@H](O)[C@H]6O)[C@H](O)[C@H]5NC(C)=O)[C@@H](O)[C@H](O[C@H]5O[C@H](CO)[C@@H](O)[C@H](O)[C@@H]5O[C@@H]5O[C@H](CO)[C@@H](O[C@@H]6O[C@H](CO[C@]7(C(=O)O)C[C@H](O)[C@@H](NC(C)=O)[C@H]([C@H](O)[C@H](O)CO)O7)[C@H](O)[C@H](O)[C@H]6O)[C@H](O)[C@H]5NC(C)=O)[C@@H]4O)[C@H](O)[C@H]3NC(C)=O)[C@H](O)[C@H]2NC(C)=O)CSSC[C@@H](C(=O)N[C@@H](CC(N)=O)C(=O)N[C@@H](CO)C(=O)N[C@@H](Cc2ccccc2)C(=O)N[C@@H](CCCNC(=N)N)C(=O)N[C@@H](Cc2ccc(O)cc2)C(=O)O)NC(=O)CNC(=O)[C@H](CC(C)C)NC(=O)CNC(=O)[C@H](CO)NC(=O)[C@H](CCC(N)=O)NC(=O)[C@H](C)NC(=O)CNC1=O [Compound 2-16, SG-PEG(3)-(SG-)Asn-hANP(1-28)]",0.98 nM,2 h
"CC[C@H](C)[C@@H]1NC(=O)[C@H](CCCNC(=N)N)NC(=O)[C@H](CC(=O)O)NC(=O)[C@H](CCSC)NC(=O)[C@H](CCCNC(=N)N)NC(=O)CNC(=O)CNC(=O)[C@H](Cc2ccccc2)NC(=O)[C@@H](NC(=O)[C@H](CO)NC(=O)[C@H](CO)NC(=O)[C@H](CCCNC(=N)N)NC(=O)[C@H](CCCNC(=N)N)NC(=O)[C@H](CC(C)C)NC(=O)[C@H](CO)NC(=O)CCSCC(=O)NCCO[C@@H]2O[C@H](CO)[C@@H](O[C@@H]3O[C@H](CO)[C@@H](O[C@@H]4O[C@H](CO[C@H]5O[C@H](CO)[C@@H](O)[C@H](O)[C@@H]5O[C@@H]5O[C@H](CO)[C@@H](O[C@@H]6O[C@H](CO[C@]7(C(=O)O)C[C@H](O)[C@@H](NC(C)=O)[C@H]([C@H](O)[C@H](O)CO)O7)[C@H](O)[C@H](O)[C@H]6O)[C@H](O)[C@H]5NC(C)=O)[C@@H](O)[C@H](O[C@H]5O[C@H](CO)[C@@H](O)[C@H](O)[C@@H]5O[C@@H]5O[C@H](CO)[C@@H](O[C@@H]6O[C@H](CO[C@]7(C(=O)O)C[C@H](O)[C@@H](NC(C)=O)[C@H]([C@H](O)[C@H](O)CO)O7)[C@H](O)[C@H](O)[C@H]6O)[C@H](O)[C@H]5NC(C)=O)[C@@H]4O)[C@H](O)[C@H]3NC(C)=O)[C@H](O)[C@H]2NC(C)=O)CSSC[C@@H](C(=O)N[C@@H](CC(N)=O)C(=O)N[C@@H](CO)C(=O)N[C@@H](Cc2ccccc2)C(=O)N[C@@H](CCCNC(=N)N)C(=O)N[C@@H](Cc2ccc(O)cc2)C(=O)O)NC(=O)CNC(=O)[C@H](CC(C)C)NC(=O)CNC(=O)[C@H](CO)NC(=O)[C@H](CCC(N)=O)NC(=O)[C@H](C)NC(=O)CNC1=O [Compound 2-25, SG-thioacetamide-hANP(1-28)]",0.054 nM,2 h
